Data published in PubChem BioAssay (NCI).
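GI50 marks 50% less growth. TGI denotes the concentration required for complete inhibition of growth.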

Tests used:
Assay in all cases: growth of human tumour cells (NCI), 384-well format
NCI-H460 NSCLC = test system: NCI-H460 NSCLC
SK-OV-3 ovarian = test system: SK-OV-3 ovarian
MDA-MB-231 breast = test system: MDA-MB-231 breast
SNB-75 CNS = test system: SNB-75 CNS
OVCAR-5 ovarian = test system: OVCAR-5 ovarian
K-562 leukemia = test system: K-562 leukemia
MDA-MB-435 melanoma = test system: MDA-MB-435 melanoma
CCRF-CEM leukemia = test system: CCRF-CEM leukemia
RPMI-8226 leukemia = test system: RPMI-8226 leukemia
SW-620 colon = test system: SW-620 colon
BT-549 breast = test system: BT-549 breast
HS 578T breast = test system: HS 578T breast
PC-3 prostate = test system: PC-3 prostate
ACHN renal = test system: ACHN renal
KM12 colon = test system: KM12 colon
NCI/ADR-RES ovarian = test system: NCI/ADR-RES ovarian
M14 melanoma = test system: M14 melanoma
MDA-MB-468 breast = test system: MDA-MB-468 breast
IGROV1 ovarian = test system: IGROV1 ovarian
LOX IMVI melanoma = test system: LOX IMVI melanoma
OVCAR-3 ovarian = test system: OVCAR-3 ovarian
SF-295 CNS = test system: SF-295 CNS
SN12C renal = test system: SN12C renal
NCI-H226 lung = test system: NCI-H226 lung
OVCAR-4 ovarian = test system: OVCAR-4 ovarian
HOP-62 NSCLC = test system: HOP-62 NSCLC
CAKI-1 renal = test system: CAKI-1 renal
A549 NSCLC = test system: A549 NSCLC
MOLT-4 leukemia = test system: MOLT-4 leukemia
OVCAR-8 ovarian = test system: OVCAR-8 ovarian
SF-268 CNS = test system: SF-268 CNS
HCT-15 colon = test system: HCT-15 colon
SNB-19 CNS = test system: SNB-19 CNS
RXF 393 renal = test system: RXF 393 renal
A498 renal = test system: A498 renal
HOP-92 NSCLC = test system: HOP-92 NSCLC
TK-10 renal = test system: TK-10 renal
NCI-H522 lung = test system: NCI-H522 lung
UACC-62 melanoma = test system: UACC-62 melanoma
SK-MEL-2 melanoma = test system: SK-MEL-2 melanoma
MCF7 breast = test system: MCF7 breast
UO-31 renal = test system: UO-31 renal
NCI-H322M lung = test system: NCI-H322M lung
U251 glioblastoma = test system: U251 glioblastoma
UACC-257 melanoma = test system: UACC-257 melanoma
DU-145 prostate = test system: DU-145 prostate
COLO 205 colon = test system: COLO 205 colon

C[C@@H](O)[C@H](NC(=O)N[C@@H](CC(N)=O)c1nc([C@@H](N)CO)no1)C(=O)O
GI50 (NCI-H460 NSCLC): > 100 µM | TGI (NCI-H460 NSCLC): > 100 µM | GI50 (SK-OV-3 ovarian): > 100 µM | TGI (SK-OV-3 ovarian): > 100 µM | GI50 (MDA-MB-231 breast): > 100 µM | TGI (MDA-MB-231 breast): > 100 µM | GI50 (SNB-75 CNS): > 100 µM | TGI (SNB-75 CNS): > 100 µM | GI50 (OVCAR-5 ovarian): > 100 µM | TGI (OVCAR-5 ovarian): > 100 µM | GI50 (K-562 leukemia): > 100 µM | TGI (K-562 leukemia): > 100 µM | GI50 (MDA-MB-435 melanoma): > 100 µM | TGI (MDA-MB-435 melanoma): > 100 µM | GI50 (CCRF-CEM leukemia): > 100 µM | TGI (CCRF-CEM leukemia): > 100 µM | GI50 (RPMI-8226 leukemia): > 100 µM | TGI (RPMI-8226 leukemia): > 100 µM | GI50 (SW-620 colon): > 100 µM | TGI (SW-620 colon): > 100 µM | GI50 (BT-549 breast): > 100 µM | TGI (BT-549 breast): > 100 µM | GI50 (HS 578T breast): > 100 µM | TGI (HS 578T breast): > 100 µM | GI50 (PC-3 prostate): > 100 µM | TGI (PC-3 prostate): > 100 µM | GI50 (ACHN renal): > 100 µM | TGI (ACHN renal): > 100 µM | GI50 (KM12 colon): > 100 µM | TGI (KM12 colon): > 100 µM | GI50 (NCI/ADR-RES ovarian): > 100 µM | TGI (NCI/ADR-RES ovarian): > 100 µM | GI50 (M14 melanoma): > 100 µM | TGI (M14 melanoma): > 100 µM | GI50 (MDA-MB-468 breast): > 100 µM | TGI (MDA-MB-468 breast): > 100 µM | GI50 (IGROV1 ovarian): > 100 µM | TGI (IGROV1 ovarian): > 100 µM | GI50 (LOX IMVI melanoma): > 100 µM | TGI (LOX IMVI melanoma): > 100 µM | GI50 (OVCAR-3 ovarian): > 100 µM | TGI (OVCAR-3 ovarian): > 100 µM | GI50 (SF-295 CNS): > 100 µM | TGI (SF-295 CNS): > 100 µM | GI50 (SN12C renal): > 100 µM | TGI (SN12C renal): > 100 µM | GI50 (NCI-H226 lung): > 100 µM | TGI (NCI-H226 lung): > 100 µM | GI50 (OVCAR-4 ovarian): > 100 µM | TGI (OVCAR-4 ovarian): > 100 µM | GI50 (HOP-62 NSCLC): > 100 µM | TGI (HOP-62 NSCLC): > 100 µM | GI50 (CAKI-1 renal): > 100 µM | TGI (CAKI-1 renal): > 100 µM | GI50 (A549 NSCLC): > 100 µM | TGI (A549 NSCLC): > 100 µM | GI50 (MOLT-4 leukemia): > 100 µM | TGI (MOLT-4 leukemia): > 100 µM | GI50 (OVCAR-8 ovarian): > 100 µM | TGI (OVCAR-8 ovarian): > 100 µM | GI50 (SF-268 CNS): > 100 µM | TGI (SF-268 CNS): > 100 µM | GI50 (HCT-15 colon): > 100 µM | TGI (HCT-15 colon): > 100 µM | GI50 (SNB-19 CNS): > 100 µM | TGI (SNB-19 CNS): > 100 µM | GI50 (RXF 393 renal): > 100 µM | TGI (RXF 393 renal): > 100 µM | GI50 (A498 renal): > 100 µM | TGI (A498 renal): > 100 µM | GI50 (HOP-92 NSCLC): > 100 µM | TGI (HOP-92 NSCLC): > 100 µM | GI50 (TK-10 renal): > 100 µM | TGI (TK-10 renal): > 100 µM | GI50 (NCI-H522 lung): > 100 µM | TGI (NCI-H522 lung): > 100 µM | GI50 (UACC-62 melanoma): > 100 µM | TGI (UACC-62 melanoma): > 100 µM | GI50 (SK-MEL-2 melanoma): > 100 µM | TGI (SK-MEL-2 melanoma): > 100 µM | GI50 (MCF7 breast): > 100 µM | TGI (MCF7 breast): > 100 µM | GI50 (UO-31 renal): > 100 µM | TGI (UO-31 renal): > 100 µM | GI50 (NCI-H322M lung): > 100 µM | TGI (NCI-H322M lung): > 100 µM | GI50 (U251 glioblastoma): > 100 µM | TGI (U251 glioblastoma): > 100 µM | GI50 (UACC-257 melanoma): > 100 µM | TGI (UACC-257 melanoma): > 100 µM | GI50 (DU-145 prostate): > 100 µM | TGI (DU-145 prostate): > 100 µM | GI50 (COLO 205 colon): > 100 µM | TGI (COLO 205 colon): > 100 µM
